Results published in patent publication US7084155B2, “Chemokine receptor binding heterocyclic compounds” (AnorMED, priority 2000, dated 2006).

Legend:
Format in all cases: cell-based
[1] = test system: SDF-1 induced Ca flux in SUP-T1 cells; test: Inhibition of chemokine (SDF-1) induced Ca flux measured on a FLIPR; details: Homo sapiens
Method: Inhibition of Chemokine Induced Ca Flux Measured on a FLIPR (Molecular Devices) Loading dye: Fluo-3, AM (Molecular Probes F-1241) is dissolved in anhydrous DMSO and stored frozen in aliquots. To increase the solubility of the dye in the loading medium, 10% (w/v) pluronic acid (Molecular Probes F-127) is added to the Fluo-3 stock solution immediately before use. HBSS+20 mM Hepes buffer+0.2% BSA, pH 7.4. HBSS 10× [(w/o phenol red and sodium bicarbonate (Gibco 14 065–049)]; Hepes buffer 1M (Gibco 15 630–056), BSA (Sigma A3675). The flux buffer is vacuum-filtered and stored refrigerated for a maximum of 5 days. Before use in the experiment, the buffer is warmed at 37° C. in a waterbath. The test compounds were diluted in flux buffer to the desired concentration and added to 4 wells of a black microplate (4 parallel measurements per compound). The following control wells were used: 100% response control (no inhibition), flux buffer was added; 100% inhibition control: chemokine was added at 5-times the concentration required to induce a Ca flux. The chemokines are diluted in flux buffer to concentrations that are 4-fold higher than the desired concentrations required for stimulation of the cells (i.e. 2.5 nM for SDF-1[…] and 0.6 nM for RANTES). The chemokines were added to untreated 96-well Sero well compound plates (International Medical, Sterilin code 611F96). In the negative control well's (baseline monitoring), flux buffer is added instead of chemokine. As a positive control to check for dye loading efficiency, 20 μM digitonin (final concentration) was also included. The agonist plate was incubated in the FLIPR (37° C.) for 15–30 min. Cell Loading Protocol for Measuring Inhibition of SDF-1[…] Induced Ca Flux in SUP-T1 Cells. SUP-T1 cells were centrifuged at room temperature (RT) and re-suspended in loading medium (RPMI-1640 containing 2% FBS and 4 μM Fluo-3, AM). The cells were incubate at room temperature for 45 min. then washed twice in flux buffer then incubated in flux buffer at room temperature for 10 min. The cells were centrifuged and re-suspended in flux buffer at a density of 3×10^6 cells per mL. A 100 uL aliquot of the cell suspension (3×10^5 cells) was added to each well of a black microplate (Costar 3603), which already contains 50 uL of a solution of the test compound (at concentrations that are 3-fold higher than the desired final compound concentrations). The microplate is then gently centrifuged at room temperature. Homogeneous spreading of the cells on the bottom of the microplate wells was then confirmed with a microscope and the microplate was incubated in the FLIPR (37° C.) for 10 min. prior to testing. Fluorescence Measurements as a Function of Time on the FLIPR The FLIPR settings (camera exposure time and laser power) are adjusted to obtain initial fluorescence values between 8,000 and 10,000 units. After monitoring a 20 second-baseline, the agonist (chemokine) (50 uL) is added by automatic pipettor with black pipette tips. Fluorescence is measured simultaneously in all wells of the microplate every 2 seconds (first 2 min) and thereafter every 6 seconds (additional 2 min). The average ca-flux measured in each set of 4 identical wells (one test compound) was calculated by the FLIPR software.

HIV-1 NL4.3 or IIIB = test: Inhibition of HIV-1 (NL4.3 or IIIB, CXCR4 using) replication in MT-4 cells, MTT viability; details: Human immunodeficiency virus 1, IIIB, MT4, concentration protecting 50% of virus-infected cells against viral cytopathicity
Method: Assay for Inhibition of HIV-1 (NL4.3) Replication in MT-4 Cells Inhibition of HIV-1 NL4.3 (or IIIB, CXCR4 using) replication assays were performed as previously described (Bridger et al. J. Med. Chem. 1999, 42, 3971-3981; De […] et al. Proc. Natl. Acad. Sci, 1992, 89, 5286-5290; De […] et al. Antimicrob. Agents Chemother. 1994, 38, 668-674; Bridger et al. J. Med. Chem. 1995, 38, 366-378; Schols et al. J. Exp. Med., 1997, 186, 1383-1388). Anti-HIV activity and cytotoxicity measurements were carried out in parallel. They were based on the viability of MT-4 cells that had been infected with HIV in the presence of various concentrations of the test compounds. After the MT-4 cells were allowed to proliferate for 5 days, the number of viable cells was quantified by a tetrazolium-based colorimetric 3-(4,5-dimethylthiazol-2-yl)-2,5-diphenyltetrazolium bromide (MTT) procedure in 96-well microtrays. In all of these assays, viral input (viral multiplicity of infection, MOI) was 0.01, or 100 times the 50% cell culture infective dose (CCID50). The EC50 was defined as the concentration required to protect 50% of the virus-infected cells against viral cytopathicity.

HIV-1 BaL = test: Inhibition of HIV-1 BaL (CCR5 using) replication in PHA-stimulated PBMC's, viral p24 antigen expression; details: Human immunodeficiency virus 1, BAL

With c1ccc(N[C@H]2CCCC[C@H]2NCc2ccc(CNCc3ccccn3)cc2)cc1 (relative stereo) [Example 132, N-(2-pyridinylmethyl)-N′-[cis-2-(N-phenylamino)cyclohexyl]-1,4-benzenedimethanamine] the inhibition at 20 µg/mL [1] was > 20%, the EC50 (HIV-1 NL4.3 or IIIB) was < 20 µg/mL and the EC50 (HIV-1 BaL) was < 20 µg/mL.

With c1ccc(CNCc2ccc(CN[C@H]3CCCC[C@@H]3NCc3ccccn3)cc2)nc1 (relative stereo) [Example 133, N-(2-pyridinylmethyl)-N′-[trans-2-[(pyridin-2-ylmethyl)amino]cyclohexyl]-1,4-benzenedimethanamine] the inhibition at 20 µg/mL [1] was > 20%, the EC50 (HIV-1 NL4.3 or IIIB) was < 20 µg/mL and the EC50 (HIV-1 BaL) was < 20 µg/mL.

In the case of c1ccc(CNCc2ccc(CN(Cc3nc4ccccc4o3)C3CCCc4cccnc43)cc2)nc1 (stereo not drawn) [Example 8, N-(2-pyridinylmethyl)-N′-(benzoxazol-2-ylmethyl)-N′-(5,6,7,8-tetrahydro-8-quinolinyl)-1,4-benzenedimethanamine], the EC50 (HIV-1 NL4.3 or IIIB) is reported as < 20 µg/mL and the EC50 (HIV-1 BaL) is reported as < 20 µg/mL.

For Cc1ccc2nc(CN(Cc3ccc(CNCc4ccccn4)cc3)C3CCCc4cccnc43)oc2c1 (stereo not drawn) [Example 17, N-(2-pyridinylmethyl)-N′-(6-methylbenzoxazol-2-ylmethyl)-N′-(5,6,7,8-tetrahydro-8-quinolinyl)-1,4-benzenedimethanamine], the EC50 (HIV-1 NL4.3 or IIIB) was < 20 µg/mL and the EC50 (HIV-1 BaL) was < 20 µg/mL.

With c1ccc(CNCc2ccc(CN(Cc3cc4ccccc4[nH]3)C3CCCc4cccnc43)cc2)nc1 (stereo not drawn) [Example 19, N-(2-pyridinylmethyl)-N′-(indol-2-ylmethyl)-N′-(5,6,7,8-tetrahydro-8-quinolinyl)-1,4-benzenedimethanamine] the EC50 (HIV-1 NL4.3 or IIIB) was < 20 µg/mL and the EC50 (HIV-1 BaL) was < 20 µg/mL.

c1ccc(-c2ccc(-c3cnc(CN(Cc4ccc(CNCc5ccccn5)cc4)C4CCCc5cccnc54)[nH]3)cc2)cc1 (stereo not drawn) [Example 31, N-(2-Pyridinylmethyl)-N′-(4-(4-biphenyl)-1H-imidazol-2-ylmethyl)-N′-(5,6,7,8-tetrahydro-8-quinolinyl)-1,4-benzenedimethanamine] was tested, and the EC50 (HIV-1 NL4.3 or IIIB) was < 20 µg/mL and the EC50 (HIV-1 BaL) was < 20 µg/mL.

For c1ccc(CNCc2ccc(CN(Cc3ncc(-c4ccc5c(c4)CCCC5)[nH]3)C3CCCc4cccnc43)cc2)nc1 (stereo not drawn) [Example 32, N-(2-Pyridinylmethyl)-N′-[5-(5,6,7,8-tetrahydronaphthalen-2-yl)-1H-imidazol-2-ylmethyl]-N′-(5,6,7,8-tetrahydro-8-quinolinyl)-1,4-benzenedimethanamine], the EC50 (HIV-1 NL4.3 or IIIB) was < 20 µg/mL and the EC50 (HIV-1 BaL) was < 20 µg/mL.

In the case of COc1c(Br)cccc1-c1cnc(CN(Cc2ccc(CNCc3ccccn3)cc2)C2CCCc3cccnc32)[nH]1 (stereo not drawn) [Example 33, N-(2-Pyridinylmethyl)-N′-[5-(3-Bromo-2-methoxy-phenyl)-1H-imidazol-2-ylmethyl]-N′-(5,6,7,8-tetrahydro-8-quinolinyl)-1,4-benzenedimethanamine], the EC50 (HIV-1 NL4.3 or IIIB) is reported as < 20 µg/mL and the EC50 (HIV-1 BaL) is reported as < 20 µg/mL.

c1ccc(CNCc2ccc(CN(CCn3cnc4ccccc43)C3CCCc4cccnc43)cc2)nc1 (stereo not drawn) [Example 37, N-(2-pyridinylmethyl)-N′-[2-(benzimidazol-1-yl)eth-1-yl]-N′-(5,6,7,8-tetrahydro-8-quinolinyl)-1,4-benzenedimethanamine] was tested, and the EC50 (HIV-1 BaL) was < 20 µg/mL.

For c1ccc(CNCc2ccc(CN(CCCn3cnc4ccccc43)C3CCCc4cccnc43)cc2)nc1 (stereo not drawn) [Example 38, N-(2-pyridinylmethyl)-N′-[3-(benzimidazol-1-yl)prop-1-yl]-N′-(5,6,7,8-tetrahydro-8-quinolinyl)-1,4-benzenedimethanamine], the inhibition at 20 µg/mL [1] was > 20% and the EC50 (HIV-1 NL4.3 or IIIB) was < 20 µg/mL.

For c1ccc(CNCc2ccc(CN(Cc3nc4ccccc4[nH]3)C3CCOc4cccnc43)cc2)nc1 (stereo not drawn) [Example 40, N-(2-pyridinylmethyl)-N′-(1-H-benzimidazol-2-ylmethyl)-N′-(3,4-dihydro-2H-pyrano[3,2-b]pyridinyl)-1,4-benzenedimethanamine], the inhibition at 20 µg/mL [1] was > 20% and the EC50 (HIV-1 NL4.3 or IIIB) was < 20 µg/mL.

For CC1(N(Cc2ccc(CNCc3ccccn3)cc2)Cc2nc3ccccc3[nH]2)CCCc2cccnc21 (stereo not drawn) [Example 42, N-(2-pyridinylmethyl)-N′-(1H-benzimidazol-2-ylmethyl)-N′-(8-methyl-5,6,7,8-tetrahydro-8-quinolinyl)-1,4-benzenedimethanamine], the inhibition at 20 µg/mL [1] was > 20% and the EC50 (HIV-1 NL4.3 or IIIB) was < 20 µg/mL.

For COc1ccnc2c1CCCC2N(Cc1ccc(CNCc2ccccn2)cc1)Cc1nc2ccccc2[nH]1 (stereo not drawn) [Example 44, N-(2-pyridinylmethyl)-N′-[1H-benzimidazol-2-ylmethyl]-N′-(4-methoxy-5,6,7,8-tetrahydro-8-quinolinyl)-1,4-benzenedimethanamine], the inhibition at 20 µg/mL [1] was > 20% and the EC50 (HIV-1 NL4.3 or IIIB) was < 20 µg/mL.

In the case of Cc1cccnc1CNCc1ccc(CN(Cc2nc3ccccc3[nH]2)C2CCCc3cccnc32)cc1 (stereo not drawn) [Example 56, N-(3-methyl-2-pyridinylmethyl)-N′-(1H-benzimidazol-2-ylmethyl)-N′-(5,6,7,8-tetrahydro-8-quinolinyl)-1,4-benzenedimethanamine], the inhibition at 20 µg/mL [1] is reported as > 20% and the EC50 (HIV-1 NL4.3 or IIIB) is reported as < 20 µg/mL.

Brc1cccc(CNCc2ccc(CN(Cc3nc4ccccc4[nH]3)C3CCCc4cccnc43)cc2)n1 (stereo not drawn) [Example 57, N-(6-bromo-2-pyridinylmethyl)-N′-(1H-benzimidazol-2-ylmethyl)-N′-(5,6,7,8-tetrahydro-8-quinolinyl)-1,4-benzenedimethanamine] was tested, and the inhibition at 20 µg/mL [1] was > 20% and the EC50 (HIV-1 NL4.3 or IIIB) was < 20 µg/mL.

For Oc1cccc(CNCc2ccc(CN(Cc3nc4ccccc4[nH]3)C3CCCc4cccnc43)cc2)n1 (stereo not drawn) [Example 58, N-(6-hydroxy-2-pyridinylmethyl)-N′-(1H-benzimidazol-2-ylmethyl)-N′-(5,6,7,8-tetrahydro-8-quinolinyl)-1,4-benzenedimethanamine], the inhibition at 20 µg/mL [1] was > 20% and the EC50 (HIV-1 NL4.3 or IIIB) was < 20 µg/mL.

With CCCOc1cccnc1CNCc1ccc(CN(Cc2nc3ccccc3[nH]2)C2CCCc3cccnc32)cc1 (stereo not drawn) [Example 59, N-(3-propoxy-2-pyridinylmethyl)-N′-(1H-benzimidazol-2-ylmethyl)-N′-(5,6,7,8-tetrahydro-8-quinolinyl)-1,4-benzenedimethanamine] the inhibition at 20 µg/mL [1] was > 20% and the EC50 (HIV-1 NL4.3 or IIIB) was < 20 µg/mL.

c1cnc2c(c1)CCCC2NCc1ccc(CN(Cc2nc3ccccc3[nH]2)C2CCCc3cccnc32)cc1 (stereo not drawn) [Example 60, N-(5,6,7,8-tetrahydro-8-quinolinyl)-N′-(1H-benzimidazol-2-ylmethyl)-N′-(5,6,7,8-tetrahydro-8-quinolinyl)-1,4-benzenedimethanamine] was tested, and the inhibition at 20 µg/mL [1] was > 20% and the EC50 (HIV-1 NL4.3 or IIIB) was < 20 µg/mL.

For COc1cccnc1CNCc1ccc(CN(Cc2nc3ccccc3[nH]2)C2CCCc3cccnc32)cc1 (stereo not drawn) [Example 65, N-(3-methoxy-2-pyridinylmethyl)-N′-(1H-benzimidazol-2-ylmethyl)-N′-(5,6,7,8-tetrahydro-8-quinolinyl)-1,4-benzenedimethanamine], the inhibition at 20 µg/mL [1] was > 20% and the EC50 (HIV-1 NL4.3 or IIIB) was < 20 µg/mL.
